Laboratory results from patent publication US11414413B2, “Heterocyclic compound as JAK inhibitor, and salts and therapeutic use thereof” (Suzhou Longbiotech Pharmaceuticals Co., Ltd., priority 2016, dated 2022).

Columns and labels:
Type in all cases: biochemical
JAK2 = JAK2 (Homo sapiens (Human), UniProt O60674); experiment: Inhibition of JAK2, luminescence kinase assay (ADP-Glo); conditions: purified recombinant JAK2
Procedure: (§1) The study of the effect of compounds on the activity of purified recombinant JAK was performed by studying the inhibitory activity of the compounds on JAK from the enzymatic level. The experimental principle is to use a luminescence kinase assay to detect the ADP content produced by the reaction of JAK with the substrate Poly (4:1 Glu, Tyr) peptide: after ADP is converted to ATP, ATP can act as a substrate for the Ultra-Glo luciferase catalytic reaction, producing an optical signal. The luminescence signal is positively correlated with the amount of ADP and kinase activity. Therefore, the inhibitory effect of the compounds on the recombinant JAK was determined by observing the luminescence signal produced by the reaction of JAK and the substrate, and was expressed by IC50.
(§2) Experimental method: 10 different concentrations of compounds were incubated with JAK1, JAK2 and JAK3, respectively, for 60 minutes at 37° C. The substrate and ATP were then added, mixed, and reacted at 37° C. for 50 minutes. 25 μl of ADP-Glo™ was added and mixed for 2 minutes. The reaction was carried out for 50 minutes at room temperature. Further, 50 μl of the detection reagent was added and mixed for 2 minutes, and incubated at room temperature for 50 minutes, and detected by a chemiluminometer.

JAK3 = JAK3 (Homo sapiens (Human), UniProt P52333); experiment: Inhibition of JAK3, luminescence kinase assay (ADP-Glo); conditions: purified recombinant JAK3
Procedure: as §1, §2

JAK1 = JAK1 (Homo sapiens (Human), UniProt P23458); experiment: Inhibition of JAK1, luminescence kinase assay (ADP-Glo); conditions: purified recombinant JAK1
Procedure: as §1, §2

JAK3, sequence (P52333 whole entry): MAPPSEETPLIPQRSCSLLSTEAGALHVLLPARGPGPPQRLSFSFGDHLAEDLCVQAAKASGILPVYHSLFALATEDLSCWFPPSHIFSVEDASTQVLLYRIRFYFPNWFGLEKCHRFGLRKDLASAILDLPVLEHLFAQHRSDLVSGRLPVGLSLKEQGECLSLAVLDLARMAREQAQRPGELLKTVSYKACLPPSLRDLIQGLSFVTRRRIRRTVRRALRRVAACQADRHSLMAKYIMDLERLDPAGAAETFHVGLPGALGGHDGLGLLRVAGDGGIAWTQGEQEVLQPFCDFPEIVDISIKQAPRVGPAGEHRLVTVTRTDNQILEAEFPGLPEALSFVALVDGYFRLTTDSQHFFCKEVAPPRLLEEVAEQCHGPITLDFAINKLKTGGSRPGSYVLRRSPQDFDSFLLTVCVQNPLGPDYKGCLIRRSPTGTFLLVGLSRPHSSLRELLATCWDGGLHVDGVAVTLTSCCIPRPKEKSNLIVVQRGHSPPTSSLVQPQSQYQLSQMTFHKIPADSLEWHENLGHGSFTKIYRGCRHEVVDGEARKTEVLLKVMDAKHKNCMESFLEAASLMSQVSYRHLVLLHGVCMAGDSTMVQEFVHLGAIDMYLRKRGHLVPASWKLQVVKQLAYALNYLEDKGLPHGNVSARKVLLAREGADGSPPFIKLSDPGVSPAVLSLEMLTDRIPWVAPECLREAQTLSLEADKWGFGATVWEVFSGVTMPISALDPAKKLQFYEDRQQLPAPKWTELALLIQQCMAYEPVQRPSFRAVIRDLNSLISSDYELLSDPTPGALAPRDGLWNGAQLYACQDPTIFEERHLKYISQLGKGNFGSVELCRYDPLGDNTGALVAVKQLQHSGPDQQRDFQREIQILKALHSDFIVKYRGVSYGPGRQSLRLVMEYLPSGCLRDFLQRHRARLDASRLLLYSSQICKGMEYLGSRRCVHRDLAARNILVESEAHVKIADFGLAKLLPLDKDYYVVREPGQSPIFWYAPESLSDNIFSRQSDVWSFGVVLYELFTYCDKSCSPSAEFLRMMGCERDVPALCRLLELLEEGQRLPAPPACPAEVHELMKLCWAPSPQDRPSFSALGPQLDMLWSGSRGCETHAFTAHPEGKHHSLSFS
JAK1, sequence (P23458 whole entry): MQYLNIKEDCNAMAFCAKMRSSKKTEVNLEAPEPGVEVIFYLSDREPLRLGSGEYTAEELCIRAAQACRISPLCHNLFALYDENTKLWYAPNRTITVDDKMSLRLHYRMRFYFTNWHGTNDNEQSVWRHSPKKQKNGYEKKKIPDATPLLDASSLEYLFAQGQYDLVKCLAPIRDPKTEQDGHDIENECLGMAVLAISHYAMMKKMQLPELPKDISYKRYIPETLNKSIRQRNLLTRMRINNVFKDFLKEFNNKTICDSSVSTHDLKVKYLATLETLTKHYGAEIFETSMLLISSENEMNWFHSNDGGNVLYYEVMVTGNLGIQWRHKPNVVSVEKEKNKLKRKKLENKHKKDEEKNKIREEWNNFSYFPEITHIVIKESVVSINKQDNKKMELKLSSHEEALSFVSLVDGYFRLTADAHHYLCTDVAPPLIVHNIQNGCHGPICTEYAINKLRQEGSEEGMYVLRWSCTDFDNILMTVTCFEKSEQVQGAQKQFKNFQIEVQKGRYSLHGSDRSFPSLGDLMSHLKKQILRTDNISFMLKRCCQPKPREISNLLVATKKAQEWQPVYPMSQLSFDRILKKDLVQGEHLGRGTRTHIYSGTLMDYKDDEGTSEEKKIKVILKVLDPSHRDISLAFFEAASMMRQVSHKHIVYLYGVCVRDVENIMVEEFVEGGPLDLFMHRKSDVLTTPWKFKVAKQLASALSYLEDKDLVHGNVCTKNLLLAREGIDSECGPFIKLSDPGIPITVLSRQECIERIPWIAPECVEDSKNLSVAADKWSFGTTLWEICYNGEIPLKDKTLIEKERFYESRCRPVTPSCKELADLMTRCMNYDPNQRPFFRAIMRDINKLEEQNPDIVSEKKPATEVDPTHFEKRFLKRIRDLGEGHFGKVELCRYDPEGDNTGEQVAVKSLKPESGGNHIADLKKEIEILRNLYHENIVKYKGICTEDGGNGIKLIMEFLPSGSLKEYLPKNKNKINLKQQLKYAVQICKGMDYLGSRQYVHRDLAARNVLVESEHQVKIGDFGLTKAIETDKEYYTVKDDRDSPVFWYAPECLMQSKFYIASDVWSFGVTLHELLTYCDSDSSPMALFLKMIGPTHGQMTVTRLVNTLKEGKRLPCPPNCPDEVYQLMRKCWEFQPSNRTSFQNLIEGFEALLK
JAK2, sequence (O60674 whole entry): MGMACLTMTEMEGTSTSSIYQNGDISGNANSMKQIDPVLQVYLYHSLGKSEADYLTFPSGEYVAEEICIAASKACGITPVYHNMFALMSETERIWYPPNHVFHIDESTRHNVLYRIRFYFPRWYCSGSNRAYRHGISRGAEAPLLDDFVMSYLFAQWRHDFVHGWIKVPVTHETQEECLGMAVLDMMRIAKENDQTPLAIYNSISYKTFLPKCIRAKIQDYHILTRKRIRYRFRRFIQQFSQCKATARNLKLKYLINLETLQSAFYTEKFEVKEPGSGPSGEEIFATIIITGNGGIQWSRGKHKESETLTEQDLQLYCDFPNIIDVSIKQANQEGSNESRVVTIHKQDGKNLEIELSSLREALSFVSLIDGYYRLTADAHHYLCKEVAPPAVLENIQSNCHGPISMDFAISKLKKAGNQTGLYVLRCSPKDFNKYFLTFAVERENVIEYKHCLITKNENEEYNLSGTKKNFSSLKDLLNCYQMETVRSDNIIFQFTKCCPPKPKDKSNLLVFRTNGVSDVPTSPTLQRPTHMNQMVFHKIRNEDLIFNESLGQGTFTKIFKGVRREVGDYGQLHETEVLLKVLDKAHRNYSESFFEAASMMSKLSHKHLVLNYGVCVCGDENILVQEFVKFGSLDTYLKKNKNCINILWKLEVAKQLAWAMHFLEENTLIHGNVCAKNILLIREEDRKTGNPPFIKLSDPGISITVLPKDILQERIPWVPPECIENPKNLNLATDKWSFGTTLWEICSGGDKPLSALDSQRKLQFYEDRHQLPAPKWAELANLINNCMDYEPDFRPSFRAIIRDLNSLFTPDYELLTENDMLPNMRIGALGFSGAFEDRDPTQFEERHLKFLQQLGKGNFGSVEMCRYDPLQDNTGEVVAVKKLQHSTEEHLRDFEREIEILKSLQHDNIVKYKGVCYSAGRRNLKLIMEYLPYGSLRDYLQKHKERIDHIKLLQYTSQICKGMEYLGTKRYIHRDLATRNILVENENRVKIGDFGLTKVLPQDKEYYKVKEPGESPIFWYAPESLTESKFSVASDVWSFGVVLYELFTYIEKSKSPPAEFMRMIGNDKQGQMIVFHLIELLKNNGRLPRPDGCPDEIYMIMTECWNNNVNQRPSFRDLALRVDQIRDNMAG

Row | IC50 (JAK2) | IC50 (JAK3) | IC50 (JAK1) | Structure (SMILES)
1 | 20 to 50 nM | > 50 nM | 20 to 50 nM | CS(=O)(=O)N1CC(CC(N)=O)(n2cc(-c3ncnc4[nH]ccc34)cn2)C1 [Example 14, 2-(3-(4-(7H-pyrrolo[2,3-d]pyrimidin-4-yl)-1H-pyrazol-1-yl)-1-(methylsulfonyl)azetidin-3-yl) acetamide]
2 | > 50 nM | > 50 nM | > 50 nM | N#CC1(Nc2ccnc(-c3ncnc4[nH]ccc34)n2)CCS(=O)(=O)CC1 [Example 52, 4-((2-(7H-pyrrolo[2,3-d]pyrimidin-4-yl)pyrimidin-4-yl)amino)tetrahydro-2H-thiopyran-4-carbonitrile 1,1-dioxide]
3 | > 50 nM | > 50 nM | > 50 nM | CCS(=O)(=O)N1CC(CC(=O)NCC(F)(F)F)(n2cc(-c3ccnc4[nH]ccc34)cn2)C1 [Example 9, 2-(3-(4-(1H-pyrrolo[2,3-b]pyridin-4-yl)-1H-pyrazol-1-yl)-1-(ethylsulfonyl)azetidin-3-yl)-N-(2,2,2-trifluoroethyl)acetamide]
4 | 20 to 50 nM | > 50 nM | > 50 nM | CC(C)(CC(=O)NCC(F)(F)F)n1cc(-c2c[nH]c3ncccc23)cn1 [Example 28, 3-(4-(1H-pyrrolo[2,3-b]pyridin-3-yl)-1H-pyrazol-1-yl)-3-methyl-N-(2,2,2-trifluoroethyl)butanamide]
5 | 20 to 50 nM | < 20 nM | < 20 nM | CS(=O)(=O)N1CC(CC(=O)NCC(F)(F)F)(n2cc(-c3ccnc4[nH]ccc34)cn2)C1 [Example 15, 2-(3-(4-(1H-pyrrolo[2,3-b]pyridin-4-yl)-1H-pyrazol-1-yl)-1-(methylsulfonyl)azetidin-3-yl)-N-(2,2,2-trifluoroethyl)acetamide]
6 | > 50 nM | 20 to 50 nM | > 50 nM | O=C(NCC(F)(F)F)C1(Nc2nc(-c3c[nH]c4ncccc34)ncc2F)CN(S(=O)(=O)C2CC2)C1 [Example 36]
7 | > 50 nM | > 50 nM | > 50 nM | CNC(=O)CC1(n2cc(-c3ncnc4[nH]ccc34)cn2)CN(S(C)(=O)=O)C1 [Example 13, 2-(3-(4-(7H-pyrrolo[2,3-d]pyrimidin-4-yl)-1H-pyrazol-1-yl)-1-(methylsulfonyl)azetidin-3-yl)-N-methylacetamide]
8 | > 50 nM | 20 to 50 nM | > 50 nM | N#CC1(Nc2ccnc(-c3c[nH]c4ncccc34)n2)CCS(=O)(=O)CC1 [Example 51, 4-((2-(1H-pyrrolo[2,3-b]pyridin-3-yl)pyrimidin-4-yl)amino)tetrahydro-2H-thiopyran-4-carbonitrile 1,1-dioxide]
9 | > 50 nM | > 50 nM | > 50 nM | CC[C@](C)(C#N)Nc1ccnc(-c2ccnc3[nH]ccc23)n1 [Example 62]
10 | 20 to 50 nM | > 50 nM | < 20 nM | N#CCC1(n2cc(-c3c[nH]c4ncccc34)cn2)CCS(=O)(=O)CC1 [Example 2, 2-(4-(4-(1H-pyrrolo[2,3-b]pyridin-3-yl)-1H-pyrazol-1-yl)-1,1-dioxotetrahydro-2H-thiopyran-4-yl)acetonitrile]
11 | > 50 nM | 20 to 50 nM | > 50 nM | N#CC1(Nc2ccnc(-c3ccnc4[nH]ccc34)n2)CCCC1 [Example 59, 1-((2-(1H-pyrrolo[2,3-b]pyridin-4-yl)pyrimidin-4-yl)amino)cyclopentanecarbonitrile]
12 | > 50 nM | > 50 nM | > 50 nM | CCS(=O)(=O)N1CC(CC(N)=O)(n2cc(-c3c[nH]c4ncccc34)cn2)C1 [Example 6, 2-(3-(4-(1H-pyrrolo[2,3-b]pyridin-3-yl)-1H-pyrazol-1-yl)-1-(ethylsulfonyl)azetidin-3-yl)acetamide]
13 | > 50 nM | 20 to 50 nM | > 50 nM | N#CC1(Nc2ccnc(-c3c[nH]c4ncccc34)n2)CCCC1 [Example 57, 1-((2-(1H-pyrrolo[2,3-b]pyridin-3-yl)pyrimidin-4-yl)amino)cyclopentanecarbonitrile]
14 | > 50 nM | 20 to 50 nM | > 50 nM | N#CC1(Nc2ccnc(-c3ccnc4[nH]ccc34)n2)CCS(=O)(=O)CC1 [Example 53, 4-((2-(1H-pyrrolo[2,3-b]pyridin-4-yl)pyrimidin-4-yl)amino)tetrahydro-2H-thiopyran-4-carbo nitrile 1,1-dioxide]
15 | > 50 nM | > 50 nM | > 50 nM | CCS(=O)(=O)N1CC(CC(N)=O)(n2cc(-c3ccnc4[nH]ccc34)cn2)C1 [Example 11, 2-(3-(4-(1H-pyrrolo[2,3-b]pyridin-4-yl)-1H-pyrazol-1-yl)-1-(ethylsulfonyl)azetidin-3-yl)acetamide]
16 | 20 to 50 nM | 20 to 50 nM | > 50 nM | CCS(=O)(=O)N1CC(C#N)(Nc2ccnc(-c3c[nH]c4ncccc34)n2)C1 [Example 45, 3-((2-(1H-pyrrolo[2,3-b]pyridin-3-yl)pyrimidin-4-yl)amino)-1-(ethylsulfonyl) azetidine-3-carbonitrile]
17 | > 50 nM | > 50 nM | > 50 nM | CCS(=O)(=O)N1CC(CC(=O)NC)(n2cc(-c3ccnc4[nH]ccc34)cn2)C1 [Example 10, 2-(3-(4-(1H-pyrrolo[2,3-b]pyridin-4-yl)-1H-pyrazol-1-yl)-1-(ethylsulfonyl)azetidin-3-yl)-N-methylacetamide]
18 | < 20 nM | > 50 nM | < 20 nM | N#CCC1(n2cc(-c3ccnc4[nH]ccc34)cn2)CCS(=O)(=O)CC1 [Example 4, 2-(4-(4-(1H-pyrrolo[2,3-b]pyridin-4-yl)-1H-pyrazol-1-yl)-1,1-dioxotetrahydro-2H-thiopyran-4-yl)acetonitrile]
19 | > 50 nM | 20 to 50 nM | > 50 nM | O=C(NCC(F)(F)F)C1(Nc2ccnc(-c3c[nH]c4ncccc34)n2)CCN(S(=O)(=O)C2CC2)CC1 [Example 39, 4-((2-(1H-pyrrolo[2,3-b]pyridin-3-yl)pyrimidin-4-yl)amino)-1-(cyclopropylsulfonyl)-N-(2,2,2-trifluoroethyl)piperidin-4-carboxamide]
20 | > 50 nM | > 50 nM | > 50 nM | CC[C@](C)(C#N)Nc1ccnc(-c2ncnc3[nH]ccc23)n1 [Example 61]
21 | > 50 nM | > 50 nM | > 50 nM | CCS(=O)(=O)N1CC(CC(=O)NCC(F)(F)F)(n2cc(-c3c[nH]c4ncccc34)cn2)C1 [Example 7, 2-(3-(4-(1H-pyrrolo[2,3-b]pyridin-3-yl)-1H-pyrazol-1-yl)-1-(ethylsulfonyl)azetidin-3-yl)-N-(2,2,2-trifluoroethyl)acetamide]
22 | > 50 nM | > 50 nM | > 50 nM | CCS(=O)(=O)N1CC(CC(=O)NCC(F)(F)F)(n2cc(-c3ncnc4[nH]ccc34)cn2)C1 [Example 8, 2-(3-(4-(1H-pyrrolo[2,3-d]pyrimidin-4-yl)-1H-pyrazol-1-yl)-1-(ethylsulfonyl)azetidin-3-yl)-N-(2,2,2-trifluoroethyl)acetamide]
23 | > 50 nM | 20 to 50 nM | > 50 nM | CS(=O)(=O)N1CCC(Nc2ccnc(-c3c[nH]c4ncccc34)n2)(C(=O)NCC(F)(F)F)CC1 [Example 37, 4-((2-(1H-pyrrolo[2,3-b]pyridin-3-yl)pyrimidin-4-yl)amino)-1-(methylsulfonyl)-N-(2,2,2-trifluoroethyl)piperidin-4-carboxamide]
24 | > 50 nM | > 50 nM | > 50 nM | CS(=O)(=O)N1CCC(CC(=O)NCC(F)(F)F)(n2cc(-c3c[nH]c4ncccc34)cn2)CC1 [Example 22, 2-(4-(4-(7H-pyrrolo[2,3-b]pyridin-3-yl)-1H-pyrazol-1-yl)-1-(methylsulfonyl)piperidin-4-yl)-N-(2,2,2-trifluoroethyl)acetamide]
25 | > 50 nM | > 50 nM | > 50 nM | CS(=O)(=O)N1CC(C#N)(Nc2ccnc(-c3ccnc4[nH]ccc34)n2)C1 [Example 50, 3-((2-(1H-pyrrolo[2,3-b]pyridin-4-yl)pyrimidin-4-yl)amino)-1-(methylsulfonyl) azetidine-3-carbonitrile]
26 | > 50 nM | 20 to 50 nM | > 50 nM | O=C(NCC(F)(F)F)C1(Nc2ccnc(-c3c[nH]c4ncccc34)n2)CN(S(=O)(=O)C2CC2)C1 [Example 33, 3-((2-(1H-pyrrolo[2,3-b]pyridin-3-yl)pyrimidin-4-yl)amino)-1-(cyclopropylsulfonyl)-N-(2,2,2-trifluoroethyl)azetidin-3-carboxamide]
27 | > 50 nM | > 50 nM | 20 to 50 nM | CS(=O)(=O)N1CCC(CC(=O)NCC(F)(F)F)(n2cc(-c3ccnc4[nH]ccc34)cn2)CC1 [Example 24, 2-(4-(4-(7H-pyrrolo[2,3-b]pyridin-4-yl)-1H-pyrazol-1-yl)-1-(methylsulfonyl)piperidin-4-yl)-N-(2,2,2-trifluoroethyl)acetamide]
28 | > 50 nM | > 50 nM | 20 to 50 nM | O=C(CC1(n2cc(-c3ccnc4[nH]ccc34)cn2)CCCC1)NCC(F)(F)F [Example 27, 2-(1-(4-(1H-pyrrolo[2,3-b]pyridin-4-yl)-1H-pyrazol-1-yl)cyclopentyl)-N-(2,2,2-trifluoroethyl) acetamide]
